The results in this text go back to US5162203A, “Methods of measuring isozymes and isozyme classes of alcohol dehydrogenase” (President and Fellows of Harvard College, priority 1989, dated 1992).

The nature of series [1]: Spectral parameters for absorption and fluorescence of ADH substrates and products. Format: physicochemical. To be noted: for total decrease of molar absorptivity (aldehyde/NADH system): 340 nm, 40 mM Mes buffer, pH 7.1, with NADH. Here is the method:
The spectral parameters for 4-methoxy-1-naphthaldehyde (IA), 6-methoxy-2-naphthaldehyde (IIA) and their reduction products (IB and IIB, respectively) are shown in Table I.
Ultraviolet absorption spectra were measured on a Cary 219 or Hewlett-Packard 8451 spectrophotometer. Fluorescence measurements were made in a Perkin Elmer MPF3 spectrofluorometer, equipped with an Osram XBO 150 Watt Xenon lamp, an R446 photomultiplier, and thermostatted cell holder through which water was passed from a Poly-Temp circulator with the following spectrometer settings: excitation wavelength 316 nm. bandwidth 8 nm for both substrate IA and IIA; emission wavelength. 370 nm for substrate IA and 360 nm for substrate IIA, emission bandwidth 24 nm. Changes in fluorescence as a result of oxidation or reduction of the substrate was then measured in the ratio mode. Generally, for fluorometric reactions (see part 8 below). a sensitivity setting of 3 was used with compensation of fluorescence background by the zero suppression control of the instrument.
(§1) Aldehyde reduction was monitored by following the decrease of absorption at 340 nm in 40 mM Mes buffer, pH 7.1. in the presence of saturating NADH, 50 μM for Class I and 100 μM for Class II. […] Initial reaction rates were measured and kinetic parameters determined by conventional procedures as described by Segel, 1975, Enzyme Kinetics, pp. 591-597, Wiley, N.Y.

In series [2] the test system is human ADH isozymes. Put plainly: Kinetics of enzymatic reduction of methoxynaphthaldehydes by ADH isozymes (general). The class given is biochemical. Here is the method:
as §1
(§2) All reaction mixtures (3 ml total volume) were prepared directly in 1 cm pathlength, 4 ml fluorometric cuvettes by adding 150 μl of the 300 μM substrate solution (e.g substrate IA or IIA) 100 μl of the 1 mM NADH solution (prepared as in part 5 above) and 2.69 ml of assay buffer (0.1M phosphate, pH 7.6). […]
(§3) The linear increase of fluorescence was then recorded for 1-10 minutes, until 0.03-1 μM of substrate was consumed. […] The added product fluorescence intensity was then measured Fluorescence measurements were optimized for samples with low activity (<1 nM/minute). […] Rates measured in the presence of the 0.2 mM ADH inhibitors. […]
(§4) The rates of aldehyde reduction, determined as initial velocities (V) and expressed in units of nM/minute, were calculated according to: [formula] where the quantity in parentheses is the slope of the linear fluorescence increase calculated from the quantities Ft and FO, the fluorescence at time t and at the beginning of the reaction, respectively. […]

Series [3] has as its target Class III (.chi.) ADH (Homo sapiens, UniProt P11766). Kind of series: Kinetics of enzymatic reduction of methoxynaphthaldehydes by Class III ADH. The class given is biochemical.
The target in series [4] is ADH in human serum (Class II) (Homo sapiens, UniProt P08319). Kind of series: Fluorometric measurement of serum ADH activity with substrate IIA. Format: biochemical. On the procedure:
(§5) All reaction mixtures (3 ml total volume) were prepared directly in 1 cm pathlength, 4 ml fluorometric cuvettes by adding 150 μl of the 300 μM substrate solution (e.g substrate IA or IIA) 100 μl of the 1 mM NADH solution (prepared as in part 5 above) and 2.69 ml of assay buffer (0.1M phosphate, pH 7.6). After thermal equilibration (25° C.) for 5 minutes, 60 μl of isozyme sample (either serum or purified ADH isozymes) was added to the cuvette.
The linear increase of fluorescence was then recorded for 1-10 minutes, until 0.03-1 μM of substrate was consumed. Larger substrate consumption was not found to be desirable (described in subpart (c) below). After this period the instrument sensitivity setting was reduced 10-30 fold, the signal compensated once again by zero suppression (see part 6 above), and 60 μl of 200-400 μM product (e.g., product IB or IIB) was added to provide an internal standard. The added product fluorescence intensity was then measured Fluorescence measurements were optimized for samples with low activity (<1 nM/minute). […] Rates measured in the presence of the 0.2 mM ADH inhibitors. […]
The rates of aldehyde reduction, determined as initial velocities (V) and expressed in units of nM/minute, were calculated according to: [formula] where the quantity in parentheses is the slope of the linear fluorescence increase calculated from the quantities Ft and FO, the fluorescence at time t and at the beginning of the reaction, respectively. Cst is the concentration of the product used as a standard added to the cuvette after the initial rate had been measured and Fst is the fluorescence intensity of the added product
Using the instrumentation described in Example 1, part 7, reaction rates as low as 6.5 nM/minute for IA and 25 nM/minute for IIA were reproducible. The limits of detection, i.e.. the point at which the fluorescence change after eight minutes becomes twice the noise level, were 1 nM/minute and 5 nM/minute for the two substrates, IA and IIA, respectively. […]

Series [5] concerns the target T1, β2 β2 ADH (Class I) (Homo sapiens, UniProt P00325).
T1 construct: beta2 allele (ADH1B*2)
Kind of series: Kinetics of enzymatic reduction of methoxynaphthaldehydes by β2β2 ADH. The class given is biochemical. To be noted: Table IV; nm = not measurable. Here is the method: as §1, §2, §3, §4

Series [6] relates to ADH in human serum (Class I). Kind of series: Fluorometric measurement of serum ADH activity with substrate IA. The settings on record: between-run repeatability, 2 minutes reaction, n=5. Format: biochemical. Here is the method: as §5
The linear increase of fluorescence was then recorded for 1-10 minutes, until 0.03-1 μM of substrate was consumed. Larger substrate consumption was not found to be desirable (described in subpart (c) below). […] The added product fluorescence intensity was then measured Fluorescence measurements were optimized for samples with low activity (<1 nM/minute). […] Rates measured in the presence of the 0.2 mM ADH inhibitors. […]
The rates of aldehyde reduction, determined as initial velocities (V) and expressed in units of nM/minute, were calculated according to: [formula] where the quantity in parentheses is the slope of the linear fluorescence increase calculated from the quantities Ft and FO, the fluorescence at time t and at the beginning of the reaction, respectively. Cst is the concentration of the product used as a standard added to the cuvette after the initial rate had been measured and Fst is the fluorescence intensity of the added product […]

Chain of Class III (.chi.) ADH (P11766 whole entry): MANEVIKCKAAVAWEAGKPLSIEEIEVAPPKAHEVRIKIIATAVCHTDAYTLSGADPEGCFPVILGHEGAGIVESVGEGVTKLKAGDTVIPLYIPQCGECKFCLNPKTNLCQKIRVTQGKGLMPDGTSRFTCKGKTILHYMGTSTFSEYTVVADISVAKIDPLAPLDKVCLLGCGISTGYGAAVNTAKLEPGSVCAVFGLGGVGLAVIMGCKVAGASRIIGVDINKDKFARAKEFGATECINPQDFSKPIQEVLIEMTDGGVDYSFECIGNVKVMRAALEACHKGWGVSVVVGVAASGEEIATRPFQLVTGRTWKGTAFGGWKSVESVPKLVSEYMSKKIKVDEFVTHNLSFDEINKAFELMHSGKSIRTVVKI
Chain of ADH in human serum (Class II) (P08319 whole entry): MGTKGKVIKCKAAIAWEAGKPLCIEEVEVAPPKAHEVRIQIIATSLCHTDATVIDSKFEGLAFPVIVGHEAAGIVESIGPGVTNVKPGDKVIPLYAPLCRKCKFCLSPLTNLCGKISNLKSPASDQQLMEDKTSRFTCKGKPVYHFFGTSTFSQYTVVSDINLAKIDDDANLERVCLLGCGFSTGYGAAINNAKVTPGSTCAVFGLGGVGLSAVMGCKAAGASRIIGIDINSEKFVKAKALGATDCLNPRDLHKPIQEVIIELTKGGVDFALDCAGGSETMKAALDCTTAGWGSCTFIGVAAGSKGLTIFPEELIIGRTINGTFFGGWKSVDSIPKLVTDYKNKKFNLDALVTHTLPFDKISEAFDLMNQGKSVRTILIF
T1 sequence (P00325 2-375): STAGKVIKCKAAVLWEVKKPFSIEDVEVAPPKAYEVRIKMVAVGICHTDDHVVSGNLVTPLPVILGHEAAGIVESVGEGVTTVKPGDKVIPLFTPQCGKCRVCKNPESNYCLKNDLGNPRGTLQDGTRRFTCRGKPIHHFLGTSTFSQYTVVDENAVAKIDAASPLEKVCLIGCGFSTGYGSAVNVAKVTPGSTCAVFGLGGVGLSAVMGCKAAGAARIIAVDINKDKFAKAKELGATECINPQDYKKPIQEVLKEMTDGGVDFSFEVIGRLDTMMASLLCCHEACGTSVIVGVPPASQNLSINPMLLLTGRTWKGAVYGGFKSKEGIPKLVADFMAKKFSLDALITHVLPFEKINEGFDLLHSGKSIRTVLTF

`COc1ccc2cc(C=O)ccc2c1` [IIA, 6-methoxy-2-naphthaldehyde]: the “total decrease of molar absorptivity (aldehyde/NADH system)” value in series [1] was 12700 M⁻¹ cm⁻¹. Moreover, in series [1] (Mes buffer (45 mM), pH 7.0), the “Absorption εmax” value is 14,400 M^-1 cm^-1, the “Absorption λmax” value is 315 nm, the “Fluorescence .phi. (quantum yield)” value came to 0.22 and the “Fluorescence λmax” value is given as 450 nm. In addition, in series [1] (in methanol), the “Fluorescence .phi. (quantum yield)” value amounted to 0.03 and the “Fluorescence λmax” value came out at 435 nm. Further, the “Km of most, in particular γ-containing Class I isozymes” value in series [2] is “close to or below 1”. Further, the Km in series [3] (Class III ADH) was more than 500 µM. Besides, in series [3] (pH 7.0, 50 μM NADH, NR = no reaction detected), the Km is more than 500 µM. The “substrate quality for Class III ADH” value in series [3] (words) is given as “very poor substrate”. The molecule further registered a limit of detection in series [4] (fluorescence change twice noise after eight minutes) of 5 nM/min. Further, the “lowest reproducible reaction rate” value in series [4] (serum) came out at 25 nM/min. For the same molecule, the “serum activity for IIA” value in series [4] (thirty of thirty six hospital patient sera, average) is 15 ± 7 nM/min.

On to `COc1ccc(C=O)c2ccccc12` [IA, 4-methoxy-1-naphthaldehyde], for which the Km entry in series [5] is recorded as “nM”. Moreover, in series [6], the Average rate is 144.8 nM/min. The “total decrease of molar absorptivity (aldehyde/NADH system)” value in series [1] is 18000 M⁻¹ cm⁻¹. In addition, in series [1] (Mes buffer (45 mM), pH 7.0), the “Absorption εmax” value is reported as 13,100 M^-1 cm^-1, the “Absorption λmax” value stood at 332 nm, the “Fluorescence .phi. (quantum yield)” value is 0.003 and the “Fluorescence λmax” value is recorded as 420 nm. Moreover, the “Km of most, in particular γ-containing Class I isozymes” value in series [2] is reported as “close to or below 1”.
